Results: patent publication US20180000085A1, “USE OF PICOLINAMIDE COMPOUNDS WITH FUNGICIDAL ACTIVITY” (DOW AGROSCIENCES LLC, priority 2014, published 2018)

How the values were obtained:
Zymoseptoria tritici = assay: Leaf blotch of wheat (SEPTTR) disease control on wheat seedlings; type: in vivo; set-up: key to SEPTTR 1DP, HV activity at 100 ppm (% control rating) / SEPTTR 3DC, HV activity at 100 ppm (% control rating) / SEPTTR disease control, 1DP / SEPTTR disease control, 3DC / SEPTTR 1DP disease control rating, HV activity / SEPTTR 3DC disease control rating, HV activity / SEPTTR 3DC, LV activity at 125.1 g/H (% Control rating) / SEPTTR 1DP, LV activity at 125.1 g/H (% Control rating) / SEPTTR 1DP disease control rating, LV activity at 125.1 g/H / SEPTTR 3DC disease control rating, LV activity at 125.1 g/H / SEPTTR 3DC disease control rating, HV activity at 100 ppm / SEPTTR 1DP disease control rating, HV activity at 100 ppm / HV activity at 100 ppm SEPTTR 3DC (disease control rating) / HV activity at 100 ppm SEPTTR 1DP (disease control rating) / LV activity at 125.1 g/H SEPTTR 1DP (disease control rating) / LV activity at 125.1 g/H SEPTTR 3DC (disease control rating): A: > 80; B: ≤ 80; C: Not Tested; D: No Activity Observed in the Reported Assay; details: for LV activity at 125.1 g/H SEPTTR 1DP (disease control rating) / LV activity at 125.1 g/H SEPTTR 3DC (disease control rating) / SEPTTR 1DP disease control rating, HV activity / SEPTTR 3DC disease control rating, HV activity: wheat leaf blotch; for SEPTTR 1DP disease control rating, HV activity / SEPTTR 3DC disease control rating, HV activity: HV application at 100 ppm
Puccinia triticina = assay: Wheat brown rust (PUCCRT) disease control on wheat seedlings; type: in vivo; set-up: key to PUCCRT 3DC, HV activity at 100 ppm (% control rating) / PUCCRT disease control, 3DC / PUCCRT 1DP disease control rating, HV activity / PUCCRT 3DC disease control rating, HV activity / PUCCRT 3DC, LV activity at 125.1 g/H (% Control rating) / PUCCRT 1DP, LV activity at 125.1 g/H (% Control rating) / PUCCRT 3DC disease control rating, LV activity at 125.1 g/H / PUCCRT 1DP disease control rating, LV activity at 125.1 g/H / PUCCRT 3DC disease control rating, HV activity at 100 ppm / PUCCRT 1DP disease control rating, HV activity at 100 ppm / HV activity at 100 ppm PUCCRT 3DC (disease control rating) / LV activity at 125.1 g/H PUCCRT 1DP (disease control rating) / LV activity at 125.1 g/H PUCCRT 3DC (disease control rating): A: > 80; B: ≤ 80; C: Not Tested; D: No Activity Observed in the Reported Assay; details: for LV activity at 125.1 g/H PUCCRT 1DP (disease control rating) / LV activity at 125.1 g/H PUCCRT 3DC (disease control rating) / PUCCRT 1DP disease control rating, HV activity / PUCCRT 3DC disease control rating, HV activity: wheat brown rust; for PUCCRT 1DP disease control rating, HV activity / PUCCRT 3DC disease control rating, HV activity: HV application at 100 ppm
[1] = low volume application, 125.1 g/H, 1 Day Protectant
[2] = low volume application, 125.1 g/H, 3 Day Curative
[3] = HV application, 100 ppm, 1 Day Protectant
[4] = HV application, 100 ppm, 3 Day Curative
[5] = low volume application, 125.1 g/H, 1 day protectant
[6] = low volume application, 125.1 g/H, 3 day curative

Row | SMILES | SEPTTR 1DP, LV activity at 125.1 g/H (% Control rating) (Zymoseptoria tritici; [1]) | SEPTTR 3DC, LV activity at 125.1 g/H (% Control rating) (Zymoseptoria tritici; [2]) | PUCCRT 1DP, LV activity at 125.1 g/H (% Control rating) (Puccinia triticina; [1]) | PUCCRT 3DC, LV activity at 125.1 g/H (% Control rating) (Puccinia triticina; [2]) | SEPTTR 1DP disease control rating, HV activity (Zymoseptoria tritici; 1 Day Protectant) | SEPTTR 3DC disease control rating, HV activity (Zymoseptoria tritici; 3 Day Curative) | PUCCRT 1DP disease control rating, HV activity (Puccinia triticina; 1 Day Protectant) | PUCCRT 3DC disease control rating, HV activity (Puccinia triticina; 3 Day Curative) | further results
1 | COCC[C@@H](OCc1ccccc1)[C@H](C)OC(=O)[C@H](C)NC(=O)c1nccc(OC)c1OCOC(C)=O [Cmpd 526] | B (≤ 80) | B (≤ 80) | D | B (≤ 80) |  |  |  |  | 
2 | CCC(CC)[C@@H](Oc1cccc(F)c1)[C@H](C)OC(=O)[C@@H](NC(=O)c1nccc(OC)c1OCOC(C)=O)C(C)C [Cmpd 645] | D | A (> 80) | A (> 80) | A (> 80) |  |  |  |  | SEPTTR 1DP, HV activity at 100 ppm (% control rating) (Zymoseptoria tritici; [3]): A (> 80); SEPTTR 3DC, HV activity at 100 ppm (% control rating) (Zymoseptoria tritici; [4]): A (> 80); PUCCRT 1DP, HV activity at 100 ppm (% control rating) (Puccinia triticina; [3]): A (> 80); PUCCRT 3DC, HV activity at 100 ppm (% control rating) (Puccinia triticina; [4]): A (> 80)
3 | C=CC[C@@H](OCC(=C)C)[C@H](C)OC(=O)[C@H](C)NC(=O)c1nccc(OC)c1OCOC(C)=O [Cmpd 1082] |  |  |  |  |  |  |  |  | LV activity at 125.1 g/H SEPTTR 1DP (disease control rating) (Zymoseptoria tritici; [1]): D; LV activity at 125.1 g/H SEPTTR 3DC (disease control rating) (Zymoseptoria tritici; [2]): D; LV activity at 125.1 g/H PUCCRT 1DP (disease control rating) (Puccinia triticina; [1]): B (≤ 80); LV activity at 125.1 g/H PUCCRT 3DC (disease control rating) (Puccinia triticina; [2]): A (> 80)
4 | CCC(CC)C(Oc1cccc(F)c1)C(C)OC(=O)C(CC(C)C)NC(=O)c1nccc(OC)c1O (centres unmarked) [Cmpd 426] |  |  |  |  | D | D | B (≤ 80) | D | 
5 | CCC(CC)C(Oc1ccc(-c2ccccc2)cc1)C(C)OC(=O)C(C)NC(=O)c1nccc(OC)c1O (centres unmarked) [Cmpd 387] |  |  |  |  | D | D | B (≤ 80) | D | 
6 | COc1ccnc(C(=O)N[C@@H](C)C(=O)O[C@@H](C)[C@H](OCC2CC2)C2CCCCC2)c1OC(C)=O [Cmpd 882] |  |  |  |  |  |  |  |  | SEPTTR 1DP disease control rating, LV activity at 125.1 g/H (Zymoseptoria tritici; [5]): D; SEPTTR 3DC disease control rating, LV activity at 125.1 g/H (Zymoseptoria tritici; [6]): B (≤ 80); PUCCRT 1DP disease control rating, LV activity at 125.1 g/H (Puccinia triticina; [5]): A (> 80); PUCCRT 3DC disease control rating, LV activity at 125.1 g/H (Puccinia triticina; [6]): A (> 80)
7 | COc1ccnc(C(=O)N[C@@H](C)C(=O)O[C@@H](C)COCC(C)C)c1O [Cmpd 339] |  |  |  |  | B (≤ 80) | D | B (≤ 80) | A (> 80) | 
8 | COc1ccnc(C(=O)NC(C)C(=O)OC(C)C(Oc2cccc3ccccc23)C(C)C)c1O (centres unmarked) [Cmpd 397] |  |  |  |  | B (≤ 80) | B (≤ 80) | A (> 80) | A (> 80) | 
9 | CCC[C@@H](Oc1ccc(Cl)c(OC)c1)[C@H](C)OC(=O)[C@H](C)NC(=O)c1nccc(OC)c1OC(C)=O [Cmpd 1054] |  |  |  |  |  |  |  |  | LV activity at 125.1 g/H SEPTTR 1DP (disease control rating) (Zymoseptoria tritici; [1]): B (≤ 80); LV activity at 125.1 g/H SEPTTR 3DC (disease control rating) (Zymoseptoria tritici; [2]): B (≤ 80); LV activity at 125.1 g/H PUCCRT 1DP (disease control rating) (Puccinia triticina; [1]): A (> 80); LV activity at 125.1 g/H PUCCRT 3DC (disease control rating) (Puccinia triticina; [2]): A (> 80)
10 | CCC(CC)[C@@H](Oc1ccc(-c2ccccc2)cc1)[C@H](C)OC(=O)[C@H](C)NC(=O)c1nccc(OC)c1OCOC(C)=O [Cmpd 596] | A (> 80) | B (≤ 80) | A (> 80) | B (≤ 80) |  |  |  |  | 
